Reference: PubChem BioAssay AID1963428 (Molecular Pharmacology Branch, DTP, NCI, 2024)

Tested on: 171881-019-R-J1-PDC complex spheroid growth, % test/control
Assay: Anticancer human tumor 171881-019-R-J1-PDC patient-derived invasive breast carcinoma cell line growth inhibition [Asc]
Conditions: for IC50: curve of first compound; for viability, T/C: stronger effect = lower value
How it was run: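 Tumor cells were grown as multicellular spheroids with stromal HUVEC and mesenchymal stem cells and treated singly or in combination. Concentrations fell in half-log steps from the clinical Cmax, or from 10 microM where none was known.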

[1] = second compound 0.1 µM, first compound 0.0316 µM
[2] = second compound 0.1 µM, first compound 0.1 µM
[3] = second compound 0.1 µM, first compound 0.316 µM
[4] = second compound 0.1 µM, first compound 1 µM
[5] = second compound 0.316 µM, first compound 0.0316 µM
[6] = second compound 0.316 µM, first compound 0.1 µM
[7] = second compound 0.316 µM, first compound 0.316 µM
[8] = second compound 0.316 µM, first compound 1 µM
[9] = second compound 1 µM, first compound 0.0316 µM
[10] = second compound 1 µM, first compound 0.1 µM
[11] = second compound 1 µM, first compound 0.316 µM
[12] = second compound 1 µM, first compound 1 µM
[13] = second compound 3.16 µM, first compound 0.0316 µM
[14] = second compound 3.16 µM, first compound 0.1 µM
[15] = second compound 3.16 µM, first compound 0.316 µM
[16] = second compound 3.16 µM, first compound 1 µM
[17] = second compound 10 µM, first compound 0.0316 µM
[18] = second compound 10 µM, first compound 0.1 µM
[19] = second compound 10 µM, first compound 0.316 µM
[20] = second compound 10 µM, first compound 1 µM
[21] = second compound 0.1 µM, first compound 0.00316 µM
[22] = second compound 0.1 µM, first compound 0.01 µM
[23] = second compound 0.316 µM, first compound 0.00316 µM
[24] = second compound 0.316 µM, first compound 0.01 µM
[25] = second compound 1 µM, first compound 0.00316 µM
[26] = second compound 1 µM, first compound 0.01 µM
[27] = second compound 3.16 µM, first compound 0.00316 µM
[28] = second compound 3.16 µM, first compound 0.01 µM
[29] = second compound 10 µM, first compound 0.00316 µM
[30] = second compound 10 µM, first compound 0.01 µM
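Throughout, for viability, T/C: spheroids exposed to compounds for 7 days.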

SMILES: C=CC(=O)N1CCN(c2nc(=O)n(-c3c(C)ccnc3C(C)C)c3nc(-c4c(O)cccc4F)c(F)cc23)C(C)C1 (stereo not given) + Cc1c(S(C)(=O)=O)c(-c2cc(F)cc(N3CCN(c4ccc(NS(=O)(=O)c5ccc(NC(CCN6CCC(C(=O)OCCCP(=O)(O)O)CC6)CSc6ccccc6)c(S(=O)(=O)C(F)(F)F)c5)cc4)CC3)c2)c(-c2ccc(Cl)cc2)n1C(C)C
- IC50 (second compound 0.1 µM): > 10000 nM
- IC50 (second compound 0.316 µM): > 10000 nM
- IC50 (second compound 1 µM): > 10000 nM
- IC50 (second compound 3.16 µM): > 10000 nM
- IC50 (second compound 10 µM): > 10000 nM
- viability, T/C [1]: 92.3%
- viability, T/C [2]: 111%
- viability, T/C [3]: 100%
- viability, T/C [4]: 86%
- viability, T/C (second compound 0.1 µM, first compound 3.16 µM): 84.9%
- viability, T/C (second compound 0.1 µM, first compound 10 µM): 79.6%
- viability, T/C [5]: 128%
- viability, T/C [6]: 114%
- viability, T/C [7]: 118%
- viability, T/C [8]: 86.9%
- viability, T/C (second compound 0.316 µM, first compound 3.16 µM): 78.9%
- viability, T/C (second compound 0.316 µM, first compound 10 µM): 87.7%
- viability, T/C [9]: 119%
- viability, T/C [10]: 123%
- viability, T/C [11]: 125%
- viability, T/C [12]: 104%
- viability, T/C (second compound 1 µM, first compound 3.16 µM): 78.7%
- viability, T/C (second compound 1 µM, first compound 10 µM): 90.9%
- viability, T/C [13]: 153%
- viability, T/C [14]: 122%
- viability, T/C [15]: 138%
- viability, T/C [16]: 133%
- viability, T/C (second compound 3.16 µM, first compound 3.16 µM): 99.2%
- viability, T/C (second compound 3.16 µM, first compound 10 µM): 99%
- viability, T/C [17]: 165%
- viability, T/C [18]: 186%
- viability, T/C [19]: 165%
- viability, T/C [20]: 187%
- viability, T/C (second compound 10 µM, first compound 3.16 µM): 133%
- viability, T/C (second compound 10 µM, first compound 10 µM): 105%

SMILES: COc1c(OCCCN2CCOCC2)ccc2c3n(c(=NC(=O)c4cnc(N)nc4)nc12)CCN3 + Cc1c(S(C)(=O)=O)c(-c2cc(F)cc(N3CCN(c4ccc(NS(=O)(=O)c5ccc(NC(CCN6CCC(C(=O)OCCCP(=O)(O)O)CC6)CSc6ccccc6)c(S(=O)(=O)C(F)(F)F)c5)cc4)CC3)c2)c(-c2ccc(Cl)cc2)n1C(C)C
- IC50 (second compound 0.1 µM): 21.8 nM
- IC50 (second compound 0.316 µM): 13.8 nM
- IC50 (second compound 1 µM): 9.37 nM
- IC50 (second compound 3.16 µM): 4.99 nM
- IC50 (second compound 10 µM): 4.6 nM
- viability, T/C [21]: 148%
- viability, T/C [22]: 91.5%
- viability, T/C [1]: 30.1%
- viability, T/C [2]: 7.28%
- viability, T/C [3]: 1.11%
- viability, T/C [4]: 0.49%
- viability, T/C [23]: 129%
- viability, T/C [24]: 62.6%
- viability, T/C [5]: 17%
- viability, T/C [6]: 5.34%
- viability, T/C [7]: 0.77%
- viability, T/C [8]: 0.4%
- viability, T/C [25]: 102%
- viability, T/C [26]: 46.9%
- viability, T/C [9]: 12.7%
- viability, T/C [10]: 3.92%
- viability, T/C [11]: 0.8%
- viability, T/C [12]: 0.9%
- viability, T/C [27]: 64.2%
- viability, T/C [28]: 28.2%
- viability, T/C [13]: 8.79%
- viability, T/C [14]: 1.69%
- viability, T/C [15]: 0.26%
- viability, T/C [16]: 0.49%
- viability, T/C [29]: 63.7%
- viability, T/C [30]: 21.6%
- viability, T/C [17]: 9.29%
- viability, T/C [18]: 0.84%
- viability, T/C [19]: 0.24%
- viability, T/C [20]: 1.51%

SMILES: NC(=O)C(=Cn1cnc(-c2cc(C(F)(F)F)cc(C(F)(F)F)c2)n1)c1cncnc1 + Cc1c(S(C)(=O)=O)c(-c2cc(F)cc(N3CCN(c4ccc(NS(=O)(=O)c5ccc(NC(CCN6CCC(C(=O)OCCCP(=O)(O)O)CC6)CSc6ccccc6)c(S(=O)(=O)C(F)(F)F)c5)cc4)CC3)c2)c(-c2ccc(Cl)cc2)n1C(C)C
- IC50 (second compound 0.1 µM): 25.4 nM
- IC50 (second compound 0.316 µM): 18.8 nM
- IC50 (second compound 1 µM): 17.3 nM
- IC50 (second compound 3.16 µM): 13.5 nM
- IC50 (second compound 10 µM): 9.39 nM
- viability, T/C (second compound 0.1 µM, first compound 0.000949 µM): 102%
- viability, T/C (second compound 0.1 µM, first compound 0.003 µM): 108%
- viability, T/C (second compound 0.1 µM, first compound 0.00949 µM): 116%
- viability, T/C (second compound 0.1 µM, first compound 0.03 µM): 40.1%
- viability, T/C (second compound 0.1 µM, first compound 0.0949 µM): 4.69%
- viability, T/C (second compound 0.1 µM, first compound 0.3 µM): 1.77%
- viability, T/C (second compound 0.316 µM, first compound 0.000949 µM): 111%
- viability, T/C (second compound 0.316 µM, first compound 0.003 µM): 159%
- viability, T/C (second compound 0.316 µM, first compound 0.00949 µM): 84.5%
- viability, T/C (second compound 0.316 µM, first compound 0.03 µM): 28.7%
- viability, T/C (second compound 0.316 µM, first compound 0.0949 µM): 2.73%
- viability, T/C (second compound 0.316 µM, first compound 0.3 µM): 1.39%
- viability, T/C (second compound 1 µM, first compound 0.000949 µM): 144%
- viability, T/C (second compound 1 µM, first compound 0.003 µM): 135%
- viability, T/C (second compound 1 µM, first compound 0.00949 µM): 86.1%
- viability, T/C (second compound 1 µM, first compound 0.03 µM): 16.6%
- viability, T/C (second compound 1 µM, first compound 0.0949 µM): 2.27%
- viability, T/C (second compound 1 µM, first compound 0.3 µM): 1.86%
- viability, T/C (second compound 3.16 µM, first compound 0.000949 µM): 171%
- viability, T/C (second compound 3.16 µM, first compound 0.003 µM): 151%
- viability, T/C (second compound 3.16 µM, first compound 0.00949 µM): 65.4%
- viability, T/C (second compound 3.16 µM, first compound 0.03 µM): 14.7%
- viability, T/C (second compound 3.16 µM, first compound 0.0949 µM): 1.2%
- viability, T/C (second compound 3.16 µM, first compound 0.3 µM): 0.46%
- viability, T/C (second compound 10 µM, first compound 0.000949 µM): 183%
- viability, T/C (second compound 10 µM, first compound 0.003 µM): 135%
- viability, T/C (second compound 10 µM, first compound 0.00949 µM): 47.7%
- viability, T/C (second compound 10 µM, first compound 0.03 µM): 13.5%
- viability, T/C (second compound 10 µM, first compound 0.0949 µM): 1.03%
- viability, T/C (second compound 10 µM, first compound 0.3 µM): 0.35%

SMILES: NC1CCC(NC2CC2c2ccccc2)CC1 (stereo not given) + Cc1c(S(C)(=O)=O)c(-c2cc(F)cc(N3CCN(c4ccc(NS(=O)(=O)c5ccc(NC(CCN6CCC(C(=O)OCCCP(=O)(O)O)CC6)CSc6ccccc6)c(S(=O)(=O)C(F)(F)F)c5)cc4)CC3)c2)c(-c2ccc(Cl)cc2)n1C(C)C
- IC50 (second compound 0.1 µM): > 100 nM
- IC50 (second compound 0.316 µM): > 100 nM
- IC50 (second compound 1 µM): > 100 nM
- IC50 (second compound 3.16 µM): > 100 nM
- IC50 (second compound 10 µM): > 100 nM
- viability, T/C (second compound 0.1 µM, first compound 0.000316 µM): 85.6%
- viability, T/C (second compound 0.1 µM, first compound 0.001 µM): 83%
- viability, T/C [21]: 85.6%
- viability, T/C [22]: 81%
- viability, T/C [1]: 88.7%
- viability, T/C [2]: 91.8%
- viability, T/C (second compound 0.316 µM, first compound 0.000316 µM): 99.9%
- viability, T/C (second compound 0.316 µM, first compound 0.001 µM): 107%
- viability, T/C [23]: 90.5%
- viability, T/C [24]: 88.2%
- viability, T/C [5]: 96%
- viability, T/C [6]: 84.1%
- viability, T/C (second compound 1 µM, first compound 0.000316 µM): 97.6%
- viability, T/C (second compound 1 µM, first compound 0.001 µM): 101%
- viability, T/C [25]: 91.5%
- viability, T/C [26]: 82.6%
- viability, T/C [9]: 84%
- viability, T/C [10]: 92.4%
- viability, T/C (second compound 3.16 µM, first compound 0.000316 µM): 134%
- viability, T/C (second compound 3.16 µM, first compound 0.001 µM): 99.3%
- viability, T/C [27]: 93%
- viability, T/C [28]: 88.3%
- viability, T/C [13]: 88.1%
- viability, T/C [14]: 104%
- viability, T/C (second compound 10 µM, first compound 0.000316 µM): 154%
- viability, T/C (second compound 10 µM, first compound 0.001 µM): 127%
- viability, T/C [29]: 111%
- viability, T/C [30]: 115%
- viability, T/C [17]: 121%
- viability, T/C [18]: 92.3%
